Measured values: patent US10183944B2 (Asana Biosciences, LLC, priority 2011, dated 2019)
Where two headings read alike, the source gives them in different places.

Legend:
RBL2H3 cells = assay: Degranulation assay: β-hexosaminidase release during immune complex mediated degranulation; type: cell-based, rat; conditions: Rattus norvegicus, RBL-2H3; for inhibition at 1 µM: read-out: Degranulation % inhibition at 1 μM; for EC50: read-out: Degranulation EC50
Outline: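 RBL2H3 cells sensitized overnight (or 24 h) with anti-DNP rat IgE, pretreated 15 min with compounds in 0.5% DMSO, then challenged with DNP-BSA for 45–60 min. β-Hexosaminidase in supernatant read fluorometrically (Ex 355/Em 460 nm) with β-NAG substrate, 30 min RT; % release/inhibition calculated.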

JAK2 = JAK2 (Homo sapiens (Human), UniProt O60674); assay: Inhibition of enzymatic JAK2 kinase activity (TR-FRET); type: biochemical; conditions: read-out: IC50 JAK
Chain of JAK2 (O60674 808-1132): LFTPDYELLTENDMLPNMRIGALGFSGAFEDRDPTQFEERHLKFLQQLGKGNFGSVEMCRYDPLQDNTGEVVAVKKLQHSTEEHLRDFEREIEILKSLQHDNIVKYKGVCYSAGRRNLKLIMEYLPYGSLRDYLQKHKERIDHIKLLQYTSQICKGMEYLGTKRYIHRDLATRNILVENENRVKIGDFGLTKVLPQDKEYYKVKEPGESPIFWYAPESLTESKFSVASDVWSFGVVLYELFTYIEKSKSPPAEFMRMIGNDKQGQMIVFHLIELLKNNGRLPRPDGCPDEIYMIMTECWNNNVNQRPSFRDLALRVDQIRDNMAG
Outline: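 Enzyme preincubated with compound 30 min at RT, then Ulight-poly-GT substrate and ATP added for 60 min at RT. EDTA stop, Eu-antiphosphotyrosine antibody; TR-FRET ratio 665/615 nm (ex 340 nm), blank-corrected; % inhibition versus positive control.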

[1] = Assay Protocol B (96 well format)
[2] = Assay Protocol A (24 well format)

SMILES | inhibition at 1 µM (RBL2H3 cells; [1]) [%] | EC50 (RBL2H3 cells; [1]) [nM] | IC50 (JAK2) [nM] | inhibition at 1 µM (RBL2H3 cells; [2]) [%] | EC50 (RBL2H3 cells; [2]) [nM]
N#CCC1CCN(c2nc(Nc3ccc(N4CCN(CCO)CC4)cc3)c3c(=O)[nH]ncc3n2)CC1 [Example 191, 2-(1-(4-((4-(4-(2-hydroxyethyl)piperazin-1-yl)phenyl)amino)-5-oxo-5,6-dihydropyrimido[4,5-d]pyridazin-2-yl)piperidin-4-yl)acetonitrile] | 92 | 21 | < 10 |  | 
Cl.O=c1[nH]ncc2nc(-c3ccccc3)nc(Nc3ccc(CN4CCNCC4)cc3)c12 [Example 7, 2-phenyl-4-(4-(piperazin-1-ylmethyl)phenylamino)pyrimido[4,5-d]pyridazin-5(6H)-one hydrochloride] |  |  | < 50 | 92 | 86
O=C(O)C1CC12CCN(c1ccc(Nc3nc(-c4ccccc4)nc4cn[nH]c(=O)c34)cc1)CC2 (stereo not drawn) [Example 19, 6-(4-(5-oxo-2-phenyl-5,6-dihydropyrimido[4,5-d]pyridazin-4-ylamino)phenyl)-6-azaspiro[2.5]octane-1-carboxylic acid] |  |  | < 10 | 100 | 19
O=C(O)C1CC12CCN(c1ccc(Nc3nc(N4CCCCCC4)nc4cn[nH]c(=O)c34)cc1)CC2 (stereo not drawn) [Example 62, 6-(4-((2-(azepan-1-yl)-5-oxo-5,6-dihydropyrimido[4,5-d]pyridazin-4-yl)amino)phenyl)-6-azaspiro[2.5]octane-1-carboxylic acid] | 100 | 49 | < 10 |  | 
N#CCC1CCN(c2nc(Nc3ccc(N4CCC(O)CC4)cc3)c3c(=O)[nH]ncc3n2)CC1 [Example 189, 2-(1-(4-((4-(4-hydroxypiperidin-1-yl)phenyl)amino)-5-oxo-5,6-dihydropyrimido[4,5-d]pyridazin-2-yl)piperidin-4-yl)acetonitrile] | 98 | 14 | < 50 |  | 
O=C(O)CC1CCN(c2ccc(Nc3nc(N4CCCCCC4)nc4cn[nH]c(=O)c34)cn2)CC1 [Example 108, 2-(1-(5-((2-(azepan-1-yl)-5-oxo-5,6-dihydropyrimido[4,5-d]pyridazin-4-yl)amino)pyridin-2-yl)piperidin-4-yl) acetic acid] | 98 | 68 | < 10 |  | 
O=C(O)C1CCN(c2ccc(Nc3nc(-c4ccccc4)nc4cn[nH]c(=O)c34)cc2)CC1 [Example 13, 1-(4-(5-oxo-2-phenyl-5,6-dihydropyrimido[4,5-d]pyridazin-4-ylamino)phenyl)piperidine-4-carboxylic acid] |  |  | < 10 | 100 | 47
